For orientation: Kd means the concentration at which binding is half-saturated.

Ends that are not written are not given here. Peptide text beside a SMILES is read from it. * marks the point of attachment. Biotin = O=C1N[C@H]2[C@H](CS[C@H]2CCCCC(=O)*)N1

Common to all, as to experiment: SPR binding of MBP-PDZ analyte to immobilised biotinylated peptides
Experiment [1] addresses T1, MAGI1-3/6 PDZ domain (Mus musculus, UniProt Q6RHR9).
T1 construct: The cDNA encoding residues 448–572 and 613–752 of mouse MAGI-1 (UniProt acc.: Q6RHR9-1); made in house; host or cells: E. coli BL21 DE3
Particulars: SPR Biacore 2000, 25 C, steady state, 1:1 binding isotherm, MBP-PDZ 0-30 µM; to be considered with caution; read-out: tentative KD. The method, then: (§1) We opted for the surface plasmon resonance (SPR) method to measure these 190 (19 proteins×2 peptide versions×5 PDZ constructs) interactions. In SPR various concentrations of “analytes” (here, PDZ domains fused to the Maltose Binding Protein (MBP)) flow over surfaces presenting attached “ligands” (here, biotinylated peptides). The amount of analyte interacting with the ligand is measured and quantified in response units (RU). The intensity of this signal is proportional to the binding strength of the assayed interaction (Figure 5A). K [drawing 13] were obtained using a 1∶1 interaction model. However, these calculated K [drawing 14] were rather inaccurate especially for weak interactions. Therefore, we preferred to rank the binding strengths of the 190 interactions using normalised RU signals at equilibrium ( [drawing 15] ) rather than K [drawing 16] (see Methods for details). These normalised [drawing 17] values were plotted in form of a heat map (Figure 5B).
(§2) The cDNA encoding residues 448–572 and 613–752 of mouse MAGI-1 (UniProt acc.: Q6RHR9-1) encoding for MAGI1-2/6 (100% identical to human MAGI1-2/6) and MAGI1-3/6 (99% identical to human MAGI1-3/6) PDZ domains, respectively, were inserted into the NcoI/KpnI sites of the pETM-41 expression vector (EMBL) containing a 6×His-MBP tag followed by a TEV protease cleavage site. A similar cloning strategy was adopted for cDNA bearing residues 997–1093, 1097–1193 and 997–1193 of human SCRIB (Uniprot acc.: Q14160-1) encoding for SCRIB-3/4, SCRIB-4/4 PDZ domains and SCRIB-34/4 tandem PDZ construct, respectively.
(§3) Data were collected on a Biacore 2000 instrument (Biacore AB/GE Healthcare Bio-Sciences Corp., Piscataway, NJ, USA) at 25 [drawing 74] C. SPR experiments (ligand immobilisation and binding measurements) have been performed as described in Fournane et al.. Briefly, biotinylated peptides (instead of GST-fused recombinant peptides) were immobilised on CM5 sensorchips on which Neutravidin was previously attached. The MBP-PDZ domain analyte was injected at 8 to 10 different concentrations ranging from 0 up to 30 [drawing 75] M. Data were processed using the BiaEvaluation 3.2 software (Biacore AB/GE Healthcare Bio-Sciences Corp.) using “double referencing” [78] in which sensorgrams were corrected for buffer effects and bulk refractive index changes.
(§4) The steady-state binding signal ( [drawing 76] ) was derived by averaging the signals in a five second window at equilibrium. Steady-state analysis was performed by fitting the average signal [drawing 77] as a function of total MBP-PDZ concentrations, assuming a simple 1∶1 interaction binding isotherm model. […] Reasons for this inaccuracy are likely to be the following: 1. As previously described, several repetitions of all the measurements are required to determine accurate K [drawing 81] . In our case, such repetitions were not achievable in reasonable time due to the large amount of interactions measured in this study. 2. The highest injected analyte concentration restricts the maximal K [drawing 82] (weakest interaction) that can be accurately obtained. 3. A K [drawing 83] is estimated based on a mathematical extrapolation of observed [drawing 84] signals leading to additional uncertainty. Based on these reasons, we considered the calculated K [drawing 85] not as accurate enough to be used for absolute binding strength comparison in this study. We rather performed a relative analysis of binding strengths using directly [drawing 86] signals which are not biased by any mathematical assumption. We focussed on [drawing 87] signals obtained at 10 [drawing 88] M MBP-PDZ concentration, which have been systematically measured in duplicate. The [drawing 89] signal is directly proportional to the molecular weight of the analyte and the amount of immobilised ligand. Therefore, the [drawing 90] signals were normalised taking those into account before being used for binding strength comparison. […]
(SPR reads the build-up and loss of mass on a sensor chip optically.)

The target of experiment [2] is T2, SCRIB-34/4 tandem PDZ construct (Homo sapiens, UniProt Q14160).
T2 construct: residues 997–1093, 1097–1193 and 997–1193 of human SCRIB (Uniprot acc.: Q14160-1); made in house; host or cells: E. coli BL21 DE3
T2 sequence (Q14160 997-1193 isoform Q14160-1): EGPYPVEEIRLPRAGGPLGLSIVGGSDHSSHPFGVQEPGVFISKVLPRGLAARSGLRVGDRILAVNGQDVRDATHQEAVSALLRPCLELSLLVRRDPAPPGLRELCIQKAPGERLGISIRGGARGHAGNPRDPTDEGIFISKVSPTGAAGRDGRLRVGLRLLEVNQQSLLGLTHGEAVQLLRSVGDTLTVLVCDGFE
To be noted: SPR Biacore 2000, 25 C, steady state, 1:1 binding isotherm, MBP-PDZ 0-30 µM; to be considered with caution; read-out: tentative KD. The method, then: as §1, §2, §3, §4

The target in experiment [3] is T3, SCRIB-4/4 PDZ domain (Homo sapiens, UniProt Q14160).
T3 construct: residues 997–1093, 1097–1193 and 997–1193 of human SCRIB (Uniprot acc.: Q14160-1); made in house; host or cells: E. coli BL21 DE3
T3 sequence (Q14160 1097-1193 isoform Q14160-1): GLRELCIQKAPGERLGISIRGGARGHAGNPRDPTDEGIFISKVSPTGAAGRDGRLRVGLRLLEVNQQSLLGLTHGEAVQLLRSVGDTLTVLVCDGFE
Particulars: SPR Biacore 2000, 25 C, steady state, 1:1 binding isotherm, MBP-PDZ 0-30 µM; to be considered with caution; read-out: tentative KD. The method, then: as §1, §2, §3, §4

Experiment [4] deals with T4, SCRIB-3/4 PDZ domain (Homo sapiens, UniProt Q14160).
T4 construct: cDNA bearing residues 997–1093, 1097–1193 and 997–1193 of human SCRIB (Uniprot acc.: Q14160-1); made in house; host or cells: E. coli BL21 DE3
T4 sequence (Q14160 997-1093 isoform Q14160-1): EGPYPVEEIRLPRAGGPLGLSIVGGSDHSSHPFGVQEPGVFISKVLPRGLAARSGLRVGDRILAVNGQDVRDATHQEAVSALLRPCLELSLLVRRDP
Particulars: SPR Biacore 2000, 25 C, steady state, 1:1 binding isotherm, MBP-PDZ 0-30 µM; to be considered with caution; read-out: tentative KD. The method, then:
as §1, §2, §3, §4

In experiment [5] the target is T5, MAGI1-2/6 PDZ domain (Mus musculus, UniProt Q6RHR9).
T5 construct: The cDNA encoding residues 448–572 and 613–752 of mouse MAGI-1 (UniProt acc.: Q6RHR9-1) encoding for MAGI1-2/6; made in house; host or cells: E. coli BL21 DE3
T5 sequence (Q6RHR9 448-572): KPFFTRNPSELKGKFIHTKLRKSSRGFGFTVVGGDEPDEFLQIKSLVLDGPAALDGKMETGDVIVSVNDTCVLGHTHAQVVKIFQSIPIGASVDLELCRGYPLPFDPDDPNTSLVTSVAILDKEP
Particulars: Table S3, column this study; SPR; read-out: this study (Kd). The method, then: as §1, §2, §3, §4

T1 sequence (Q6RHR9 613-752): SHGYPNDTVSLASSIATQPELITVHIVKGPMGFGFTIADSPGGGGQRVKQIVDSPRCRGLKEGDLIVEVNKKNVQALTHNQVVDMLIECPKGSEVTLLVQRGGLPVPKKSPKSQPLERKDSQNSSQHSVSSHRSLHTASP

With PMESGICTIV [TTC24_10], the Kd in experiment [1] came to 37 µM.
In the case of `CC(C)C[C@H](NC(=O)[C@@H](NC(=O)[C@H](CCC(=O)O)NC(=O)[C@H](CCCCN)NC(=O)CNC(=O)[C@H](C)NC(=O)CNC(=O)[C@H](CO)NC(=O)CNC(=O)CCCC[C@@H]1SC[C@@H]2NC(=O)N[C@@H]21)[C@@H](C)O)C(=O)N[C@H](C(=O)O)C(C)C` [NET1_05] (Biotin-GSGAGKETLV-OH), the Kd is 15 µM in experiment [2] and 23 µM in experiment [1].
In the case of SVWLRKETRV [CYSLTR2_10], the Kd came out at 15 µM in experiment [2] and 202 µM in experiment [3].
Turning to VMRLQSETSV [VANG2_10], the figures for the Kd in experiment [2] and in experiment [4] were 5 µM and 12 µM, respectively.
For the compound `CC[C@H](C)[C@H](NC(=O)CNC(=O)[C@H](C)NC(=O)CNC(=O)[C@H](CO)NC(=O)CNC(=O)CCCC[C@@H]1SC[C@@H]2NC(=O)N[C@@H]21)C(=O)N[C@@H](CCC(=O)O)C(=O)N[C@@H](CO)C(=O)N[C@@H](CC(N)=O)C(=O)N[C@H](C(=O)O)C(C)C` [TANC1_05] (Biotin-GSGAGIESNV-OH), the Kd in experiment [2] is 9 µM.
As to SGGKRKETLV [NET1_10], the Kd in experiment [5] was determined as 3 µM; in experiment [1] it was 37 µM.
As for `CC[C@H](C)[C@H](NC(=O)CNC(=O)[C@H](C)NC(=O)CNC(=O)[C@H](CO)NC(=O)CNC(=O)CCCC[C@@H]1SC[C@@H]2NC(=O)N[C@@H]21)C(=O)N[C@@H](C)C(=O)N[C@H](C(=O)N[C@@H](CCC(=O)O)C(=O)N[C@H](C(=O)O)C(C)C)[C@@H](C)O` [DLL1_05] (Biotin-GSGAGIATEV-OH), the Kd in experiment [3] came to 893 µM.
With QDEKVKESYV [ABC1_10], in experiment [2], the Kd was found to be 8 µM.
Take `C[C@H](NC(=O)CNC(=O)[C@H](CO)NC(=O)CNC(=O)CCCC[C@@H]1SC[C@@H]2NC(=O)N[C@@H]21)C(=O)NCC(=O)N[C@@H](CCCCN)C(=O)N[C@@H](CCC(=O)O)C(=O)N[C@H](C(=O)N[C@@H](CO)C(=O)N[C@@H](Cc1ccccc1)C(=O)O)[C@@H](C)O` [GLUT7_05] (Biotin-GSGAGKETSF-OH): the Kd in experiment [2] turned out to be 5 µM.
For the compound GGWVEKETYY [ATP1A1_10], in experiment [4], the Kd amounted to 88 µM.
NRVDSKETEC [ADAM17_10]: in experiment [2], the Kd turned out to be 8 µM.
Consider `CC(C)[C@H](NC(=O)[C@@H](NC(=O)[C@@H](NC(=O)[C@H](CCC(=O)O)NC(=O)[C@@H](NC(=O)CNC(=O)[C@H](C)NC(=O)CNC(=O)[C@H](CO)NC(=O)CNC(=O)CCCC[C@@H]1SC[C@@H]2NC(=O)N[C@@H]21)C(C)C)[C@@H](C)O)C(C)C)C(=O)O` [MAS_05] (Biotin-GSGAGVETVV-OH), for which the values for the Kd in experiment [2] and in experiment [3] were 16 µM and 433 µM, respectively.
